This passage reports Emax and EC50 results from patent US8859549B2, “Potassium channel modulators” (AbbVie, Inc., priority 2011, dated 2014).

One may read the EC50 as the concentration needed to bring the measured effect to its halfway point. Lower therefore signals a more potent agent.

SMILES strings stand for the structures.

In this experiment the target is T1, KCNQ 2/3 channels (Homo sapiens, UniProt O43525+O43526).
T1 construct: expressed in transfected cells; host or cells: HEK293
Description: KCNQ 2/3 channel activation, thallium flux FLIPR assay (BTC-AM dye). It is filed as cell-based. Particulars: for Emax: HEK293, maximum response relative to the response of 10 μM retigabine (set at 100%), HEK293 KCNQ2/KCNQ3 cells, read-out: % MAX; for EC50: HEK293 cells stably expressing human KCNQ2 and KCNQ3 subunits, thallium-induced fluorescence, 4 min compound incubation. How it is done:
The following example describes the assay that can be used to identify compounds that activate KCNQ 2/3 channels.
HEK293 cells stably expressing human KCNQ2 and KCNQ3 subunits were seeded in 96-well, black-walled, clear-bottomed, poly-D-lysine coated plates (BD Biosciences, Bedford, Mass.) at a density of 1×10^5 cells per well 24 hours before the assay. On the assay day, BTC-AM dye (Invitrogen, Carlsbad, Calif.) was loaded into the cells by replacing the cell culture medium with 55 μL/well of 3 μg/mL dye in DPBS. Dye loading was allowed to proceed for 2 hours at room temperature and then cells were washed twice with 50 μL/well of assay buffer (in mM: 10 HEPES pH 7.3, 5 glucose, 140 Na-gluconate, 2.5 K-gluconate, 3.6 Ca-gluconate, 2 MgSO4, 0.1 Ouabain) to remove unloaded dye. Cells were incubated in 50 μL of assay buffer before loading onto a FLIPR system (Molecular Devices, Sunnyvale, Calif.). Various concentrations of compounds to be assayed were added to the cells in 50 μL of assay buffer and incubated for 4 minutes. The fluorescence signal was initiated by adding 100 μL of assay buffer containing 6 mM TlNO3 and 10 mM K2SO4. Fluors were excited using the 488-nm line of an argon laser and emission was filtered using a 540±30 nm bandpass filter. Fluorescent signals were recorded for 3 minutes. Sums of the responses over basal responses were plotted versus concentrations of test compounds to obtain an EC50 value. The maximum response for each test compound was determined relative to the response produced by 10 μM retigabine. The maximum response of retigabine at 10 μM was set at 100%.

Turning to `O=C(CC1CC2CCC1C2)Nn1nc(C(=NO)c2ccccc2)c2ccccc2c1=O` (racemic) [Example 120, (±)-2-[(exo)-bicyclo[2.2.1]hept-2-yl]-N-{4-[(Z)-(hydroxyimino)(phenyl)methyl]-1-oxophthalazin-2(1H)-yl}acetamide], the Emax amounted to 136% and the EC50 was 3180 nM.
With `CC(C)(C)OC(=O)NCc1nn(NC(=O)C[C@@H]2CC[C@H]3C[C@@H]2C3(C)C)c(=O)c2ccccc12` [Example 119, tert-butyl{[3-({[(1S,2S,5S)-6,6-dimethylbicyclo[3.1.1]hept-2-yl]acetyl}amino)-4-oxo-3,4-dihydrophthalazin-1-yl]methyl}carbamate], the Emax was found to be 33.9%.
Same read-out and setting: next, `CC(C)(C)NC(=O)NCc1nn(NC(=O)Cc2ccc(Cl)cc2)c(=O)c2ccccc12` [Example 84, N-[4-{[(tert-butylcarbamoyl)amino]methyl}-1-oxophthalazin-2(1H)-yl]-2-(4-chlorophenyl)acetamide]: 40.8%.
The same measure, in the same setting: next, `CC(C(=O)NC(C)(C)C)c1nn(NC(=O)Cc2ccc(Cl)cc2)c(=O)c2ccccc12` (stereo not shown) [Example 112, N-tert-butyl-2-(3-{[(4-chlorophenyl)acetyl]amino}-4-oxo-3,4-dihydrophthalazin-1-yl)propanamide]: 17.1%; `O=C(Cc1ccccc1)NCc1nn(NC(=O)Cc2ccc(Cl)cc2)c(=O)c2ccccc12` [Example 86, 2-(4-chlorophenyl)-N-[1-oxo-4-{[(phenylacetyl)amino]methyl}phthalazin-2(1H)-yl]acetamide]: 15.7%; `CC(C(=O)NCC(C)(C)C)c1nn(NC(=O)Cc2ccc(Cl)cc2)c(=O)c2ccccc12` (stereo not shown) [Example 113, 2-(3-{[(4-chlorophenyl)acetyl]amino}-4-oxo-3,4-dihydrophthalazin-1-yl)-N-(2,2-dimethylpropyl)propanamide]: 21.8%.
The same measure, in the same setting: next, `O=C(Cc1ccc(Cl)cc1)Nn1nc(CNC(=O)OCc2ccccc2)c2ccccc2c1=O` [Example 188, benzyl[(3-{[(4-chlorophenyl)acetyl]amino}-4-oxo-3,4-dihydrophthalazin-1-yl)methyl]carbamate]: 15.3%.
Turning to `O=C(Cc1ccc(Cl)cc1)Nn1nc(N2CCCCC2)c2ccccc2c1=O` [Example 24, 2-(4-chlorophenyl)-N-[1-oxo-4-(piperidin-1-yl)phthalazin-2(1H)-yl]acetamide], the Emax was determined as 140% and a half-maximal effect (EC50) was put at 84.2 nM.
On to `O=C(CC1CC2CCC1C2)Nn1nc(S(=O)(=O)Cc2ccccc2)c2ccccc2c1=O` (racemic) [Example 217, (±)-N-[4-(benzylsulfonyl)-1-oxophthalazin-2(1H)-yl]-2-[(exo)-bicyclo[2.2.1]hept-2-yl]acetamide], for which the Emax stood at 147% and the EC50 stood at 74.8 nM.
The like results for `Cc1ccc(S(=O)(=O)c2nn(NC(=O)Cc3ccc(Cl)cc3)c(=O)c3ccccc23)cc1` [Example 192, 2-(4-chlorophenyl)-N-{4-[(4-methylphenyl)sulfonyl]-1-oxophthalazin-2(1H)-yl}acetamide] were, in that order, 103% and 116 nM.
For `Cc1ccsc1-c1nn(NC(=O)Cc2cc(F)cc(F)c2)c(=O)c2ccccc12` [Example 14, 2-(3,5-difluorophenyl)-N-[4-(3-methylthiophen-2-yl)-1-oxophthalazin-2(1H)-yl]acetamide], in that order: 146% and 296 nM.
Consider `COc1ccccc1CC(=O)Nn1nc(N2CCOCC2)c2ccccc2c1=O` [Example 145, 2-(2-methoxyphenyl)-N-[4-(morpholin-4-yl)-1-oxophthalazin-2(1H)-yl]acetamide], for which the Emax amounted to 1.73%.
Same read-out and setting: next, `CS(=O)(=O)NCc1nn(NC(=O)Cc2ccc(Cl)cc2)c(=O)c2ccccc12` [Example 80, 2-(4-chlorophenyl)-N-[4-{[(methylsulfonyl)amino]methyl}-1-oxophthalazin-2(1H)-yl]acetamide]: 26.5%.
As for `O=C(Cc1ccc(Cl)cc1)Nn1nc(-c2ccc(Cl)nc2)c2ccccc2c1=O` [Example 5, 2-(4-chlorophenyl)-N-[4-(6-chloropyridin-3-yl)-1-oxophthalazin-2(1H)-yl]acetamide], the Emax is 85.2% and a half-maximal response (EC50) required 470 nM.
The like results for `O=C(CC1CC2CCC1C2)Nn1nc(N2CCS(=O)(=O)CC2)c2ccccc2c1=O` (racemic) [Example 190, (±)-2-[(exo)-bicyclo[2.2.1]hept-2-yl]-N-[4-(1,1-dioxidothiomorpholin-4-yl)-1-oxophthalazin-2(1H)-yl]acetamide] were, in that order, 74.3% and 10600 nM.
`Nc1ccc(Sc2nn(NC(=O)Cc3ccc(Cl)cc3)c(=O)c3ccccc23)cc1` [Example 105, N-{4-[(4-aminophenyl)sulfanyl]-1-oxophthalazin-2(1H)-yl}-2-(4-chlorophenyl)acetamide]: the Emax is 120% and the midpoint of the response, the EC50, lay at 889 nM.
Take `O=C(Cc1ccc(OCc2ccccc2)cc1)Nn1nc(N2CCOCC2)c2ccccc2c1=O` [Example 164, 2-[4-(benzyloxy)phenyl]-N-[4-(morpholin-4-yl)-1-oxophthalazin-2(1H)-yl]acetamide]: the Emax came out at 22%.
As for `Cc1ccc(S(=O)(=O)NCc2nn(NC(=O)Cc3ccc(Cl)cc3)c(=O)c3ccccc23)cc1` [Example 78, 2-(4-chlorophenyl)-N-[4-({[(4-methylphenyl)sulfonyl]amino}methyl)-1-oxophthalazin-2(1H)-yl]acetamide], the Emax is 44.1% and the EC50 is 9490 nM.
For `O=C(CC1CC2CCC1C2)Nn1nc(C(=O)c2ccccc2)c2ccccc2c1=O` (racemic) [Example 40, (±)-N-(4-benzoyl-1-oxophthalazin-2(1H)-yl)-2-[(exo)-bicyclo[2.2.1]hept-2-yl]acetamide], in that order: 135% and 31.1 nM.
In the case of `O=C(Cc1ccc(Cl)cc1)Nn1nc(C(=O)O)c2ccccc2c1=O` [Example 65, 3-{[(4-chlorophenyl)acetyl]amino}-4-oxo-3,4-dihydrophthalazine-1-carboxylic acid], the Emax stood at 30.1%.
On to `C[C@@H]1CN(c2nn(NC(=O)CC(C)(C)c3ccccc3)c(=O)c3ccccc23)C[C@H](C)O1` [Example 89, N-{4-[(cis)-2,6-dimethylmorpholin-4-yl]-1-oxophthalazin-2(1H)-yl}-3-methyl-3-phenylbutanamide], for which the Emax stood at 183% and a half-maximal response (EC50) required 350 nM.
With `COc1cccc(CC(=O)Nn2nc(N3CCOCC3)c3ccccc3c2=O)c1` [Example 146, 2-(3-methoxyphenyl)-N-[4-(morpholin-4-yl)-1-oxophthalazin-2(1H)-yl]acetamide], the Emax turned out to be 17.6%.
For the molecule `O=C(CC(F)(F)F)Nn1nc(N2CCOCC2)c2ccccc2c1=O` [Example 136, 3,3,3-trifluoro-N-[4-(morpholin-4-yl)-1-oxophthalazin-2(1H)-yl]propanamide], the Emax came out at 49.1% and the response was half-maximal at 6230 nM (EC50).
The like results for `O=C(Cc1cccc(OC(F)(F)F)c1)Nn1nc(N2CCOCC2)c2ccccc2c1=O` [Example 162, N-[4-(morpholin-4-yl)-1-oxophthalazin-2(1H)-yl]-2-[3-(trifluoromethoxy)phenyl]acetamide] were, in that order, 87.4% and 1520 nM.
